{
  "source": "patent US12514859B2",
  "about": "“Pyrazole pyrimidine derivative and uses thereof” (Yissum Research Development Company of the Hebrew …, priority 2015, dated 2026)",
  "key": {"IRAK1": {"biological_target": "T1, IRAK1 (Homo sapiens, UniProt P51617)", "T1 construct": "endogenous in cells; host or cells: RKO cells, stimulated with TNFα", "T1 sequence (P51617 whole entry)": "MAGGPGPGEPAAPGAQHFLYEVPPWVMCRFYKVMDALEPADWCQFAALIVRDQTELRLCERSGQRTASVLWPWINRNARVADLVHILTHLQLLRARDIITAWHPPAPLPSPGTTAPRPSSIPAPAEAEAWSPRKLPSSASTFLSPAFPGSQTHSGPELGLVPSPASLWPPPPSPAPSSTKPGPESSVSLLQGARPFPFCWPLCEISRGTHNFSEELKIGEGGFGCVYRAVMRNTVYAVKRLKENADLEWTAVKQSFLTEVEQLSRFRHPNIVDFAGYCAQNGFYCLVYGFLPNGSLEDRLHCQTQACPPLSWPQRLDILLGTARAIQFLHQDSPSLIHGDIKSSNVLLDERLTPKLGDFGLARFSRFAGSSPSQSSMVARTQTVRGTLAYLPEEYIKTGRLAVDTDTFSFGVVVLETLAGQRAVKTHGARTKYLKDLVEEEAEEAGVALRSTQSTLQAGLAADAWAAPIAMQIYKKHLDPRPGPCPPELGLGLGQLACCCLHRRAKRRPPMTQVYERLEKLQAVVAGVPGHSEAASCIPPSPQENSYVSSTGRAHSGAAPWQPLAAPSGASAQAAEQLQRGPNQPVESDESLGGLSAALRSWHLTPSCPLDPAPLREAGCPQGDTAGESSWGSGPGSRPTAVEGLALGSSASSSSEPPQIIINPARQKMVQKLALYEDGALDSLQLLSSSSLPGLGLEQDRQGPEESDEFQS", "experiment": "IRAK1 inhibition in RKO cells treated with TNFα (Western blot)", "format": "cell-based", "conditions": "RKO cells, Western blot; A51 1 μM, A14 2 μM, 16 hours, TNFα 100 units/ml", "description": "(§1) Cells were harvested and analyzed by Western blot. Blots were incubated with the following antibodies: Phospho-IRAK1 (Thr209), (A1074, AssayBiothechnology; 1/1,000), Phospho-IKKα/β (Ser176/180) (16A6, Cell Signaling; 1/1,000), IKKα (2682, cell signaling; 1/1,1000), IKK β (2370, cell signaling; 1/1,1000), Phospho-c-Jun (Ser 63) (9261, cell signaling; 1/1,1000), p53 (DO-1&1801 hybridoma mix; dilution of 1:20 of supernatants from each), CKIα (C-19; 1/1,000; Santa Cruz Biotechnology) and phospho-histoneH2AX (S139; 1/1,000; Millipore). Secondary antibodies were HRP-linked goat anti-mouse, goat anti-rabbit and rabbit anti-goat antibodies (all 1/10,000; Jackson). Inhibition of Phospho-IRAK1, Phospho-IKKα/β and Phospho-c-Jun indicate IRAK1 inhibition. p53 stabilization and phosphorylation of H2AX (γH2AX), a marker of DNA damage, indicative of CKIα kinase inhibition. CKIα protein levels serves as a loading control.\nas §1, with “IRAK1 Inhibition with compounds of the invention. RKO cells were incubated for 16 hours at 37° C. with the indicated concentrations of compounds of the invention A51 (1 μM) and A14 (2 μM) (FIG. 10). At the indicated time points, RKO were treated with TNFα (100 units/ml). Cells” for “Cells”, “IKKβ” for “IKK β”, “Blots were developed using ECL (GE Healthcare). […] Also shown is” for “Inhibition of Phospho-IRAK1, Phospho-IKKα/β and Phospho-c-Jun indicate IRAK1 inhibition.”"}, "CML blast crisis mice": {"system": "CML blast crisis mice", "experiment": "CML blast crisis mouse model (BCR-ABL)", "format": "in vivo", "conditions": "oral 10 mg/kg once a day, day 9", "description": "Generation of a mouse model of CML blast crisis and inhibitor studies in this model. To generate the BCR-ABL-inducible chronic myeloid leukemia (CML) model, bone marrow (BM) cells from 10 weeks wild type mouse were extracted and enriched for cKit expressing cells (EasySep #18757) and incubated overnight at 37° C. in RPMI growth medium supplemented with 15% FCS, L-Glutamine, Pen/Strep (Biological Industries, Israel) and stem cell factor (SCF), IL-3, IL-6 and TPO (Peprotcch). The culture was then infected with p210BCR-ABL-IRES-GFP retrovirus construct containing supernatant medium for 4 hours, then growth medium was added and infected cells were incubated at 37° C. for additional 24 h. […] Upon observing a fast steady increase of GFP-expressing cells in the peripheral blood of inoculated mice (by FACS) and rising numbers of leukocyte and immature cells (detected by Wright-Giemsa stained blood films), mice were sacrificed and their BM cells were transferred to new sublethally irradiated WT hosts; each such transfer was termed disease generation. […] Blast crisis development was readily detectable by a highly abnormal number of blast cells, more than 30% of white blood cells (WBC) in the peripheral blood (PB), and short time intervals between transfers. […] Mice were monitored daily for cachexia, weight loss, lethargy, and ruff coats, and moribund mice were sacrificed upon moribund. […]"}, "[1]": {"system": "bone marrow cells isolated from CML blast crisis mice", "experiment": "Ex vivo inhibitor effects on bone marrow cells from CML blast crisis mice", "format": "cell-based, mouse", "conditions": "8 hours", "description": "Ex vivo inhibitor effects (FIGS. 2A and 13A-E). Freshly isolated BM from AML (13A-E) or CML blast crisis (2A) carrying mice were grown in RPMI supplemented with 15% FCS, L-Glutamine, Pen/Strep, Hepes, Sodium Pyruvate and non-essential amino acids (Biological Industries, Israel). CKI inhibitors (A14, A51, A75 or A86) were dissolved in DMSO and added to the tissue culture medium at the indicated concentrations; control cultures were treated with DMSO only. Several hours following treatment (as indicated in each experiment), cells were harvested and counted manually using a camera and standard inverted light microscope. Dead cells were excluded using Trypan Blue (Sigma). AnnexinV-PE (MBL), 7AAD (Tonbo) and PD-L1 (BioLegend) staining was evaluated by FACS according to manufacturer's recommendation.\nFACS analysis. All assays were performed on BD's equipment: FACS caliber, FACS ARIA sorter or LSR II machines. For immunostaining, cells were suspended in a 1% BSA/PBS buffer with […]. Cells were then analyzed by using Annexin V PE Apootosis Detection Kit (eBioscience), 7-AAD (TONBO biosciences) and PE anti-mouse CD274 (B7-H1, PD-L1) antibody (clone 10F.9G2, BioLegend); Assays were performed according to the manufacturer's instruction. Monoclonal antibodies specific for CD16 and CD32 (Miltenyi Biotec) were used for blockade of Fc receptors before staining."}},
  "data": [
    {"smiles": "Cn1ncc(-c2ccnc(N[C@H]3CC[C@H](N)CC3)n2)c1CC1CC1", "note": "[Compound A14, (1R, 4R)—N^1-(4-(5-(cyclopropylmethyl)-1-methyl-1H-pyrazol-4-yl)pyrimidin-2-yl)cyclohexane-1,4-diamine]", "values": [
      {"measurement": "IRAK1 activation and activation of the IRAK1 target IKK (in words)", "setting": "IRAK1", "result": "inhibition of IRAK1 activation"},
      {"measurement": "leukemia cell burden in the peripheral blood and bone marrow (in words)", "setting": "CML blast crisis mice", "result": "significantly reduces the leukemia cell burden"},
      {"measurement": "apoptosis of bone marrow cells (Annexin5+/7AAD−) (in words)", "setting": "[1]; dose dependent", "result": "induces apoptosis"},
      {"measurement": "total death (7AAD+) cells (in words)", "setting": "[1]; dose dependent", "result": "increased percentage of total death (7AAD+) cells"},
      {"measurement": "leukemic cell number (in words)", "setting": "[1]; dose response", "result": "dramatic reduction of the leukemic cell number"}
    ]}
  ]
}
